Results from patent publication US7851473B2, “Amide compound” (Takeda Pharmaceutical Company Limited, priority 2004, dated 2010).
Structures can show the parent of a compound that is named as a salt.

Molecular target: T1, human FAAH (Homo sapiens, UniProt O00519)
T1 construct: made in house; 10000 g pellet suspended in M-PER
T1 sequence (O00519 1-579): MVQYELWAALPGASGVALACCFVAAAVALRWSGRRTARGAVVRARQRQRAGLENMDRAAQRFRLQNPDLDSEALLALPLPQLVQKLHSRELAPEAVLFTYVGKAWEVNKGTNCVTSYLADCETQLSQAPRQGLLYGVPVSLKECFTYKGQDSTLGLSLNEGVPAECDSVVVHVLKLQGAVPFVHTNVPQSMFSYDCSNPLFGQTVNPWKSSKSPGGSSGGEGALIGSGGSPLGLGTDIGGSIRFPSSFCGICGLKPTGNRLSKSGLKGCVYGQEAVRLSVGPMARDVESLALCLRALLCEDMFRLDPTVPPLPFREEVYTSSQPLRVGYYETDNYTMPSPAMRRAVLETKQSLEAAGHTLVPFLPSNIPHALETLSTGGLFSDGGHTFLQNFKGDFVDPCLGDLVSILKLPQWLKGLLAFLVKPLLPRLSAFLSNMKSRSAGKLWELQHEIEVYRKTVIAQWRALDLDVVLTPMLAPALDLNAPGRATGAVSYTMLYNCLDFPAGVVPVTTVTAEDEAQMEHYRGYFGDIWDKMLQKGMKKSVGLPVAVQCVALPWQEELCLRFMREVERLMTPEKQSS
Assay: Measurement of FAAH inhibitory activity (anandamide [ethanolamine 1-3H] hydrolysis, filter plate)
Assay type: biochemical
Settings: test compound 1 μM; CHO-K1/human FAAH enzyme fraction; anandamide 25 nM; 37° C., 30 minutes; read-out: Human FAAH Inhibition Rate at 1 μM (%)
Experimental: (1) Preparation of Enzyme Fraction
The FAAH gene was cloned by PCR. That is, a human brain library was used as a cDNA library, 5′-[…]-3′ [SEQ ID NO:1] and 5′-[…]-3′ [SEQ ID NO:2] were used as a primer set, and KOD DNA polymerase (Toyobo Co., Ltd.) was used as a DNA polymerase. One cycle of the reaction comprises 95° C. for 30 sec, 55° C. for 30 sec and 72° C. for 2 min, and 45 cycles of the reaction was carried out to obtain an amplified fragment. The amplified fragment was cleaved with restriction enzymes EcoRI and SalI, and then was inserted into a pMSRα vector which had been cleaved with the same restriction enzymes EcoRI and SalI to obtain a pMSRα-human FAAH. A cell line CHO-K1 and the above-obtained plasmid were subjected to a method known per se to prepare the cell line CHO-K1/human FAAH in which human FAAH was stably expressed. The CHO-K1/human FAAH was cultured in a CO2 incubator at 37° C., using a medium (Ham's F-12 medium supplemented with final concentration 10% of fetal bovine serum (FBS) and final concentration 800 μg/ml of G418), and then the cells were harvested. After washing with PBS, the cells were suspended in a buffer (10 mM Tris, 1 mM EDTA and 10 mM MgCl2, all at final concentrations) and disrupted with a Polytron homogenizer. After centrifugation at 900 g, the supernatant was recovered and further centrifuged at 10000 g. A pellet obtained therefrom was suspended in M-PER (Catalog No. 78501; PIERCE) to give an enzyme fraction.
Using a white walled 96-well plate (Coster Corp.), the test compound at various concentrations, 60 ng of the enzyme fraction and the substrate anandamide [ethanolamine 1-^3H] (final concentration 25 nM) were reacted in 50 μl of a reaction buffer (125 mM Tris-HCl (pH 9.0), 1 mM EDTA, 0.4 mM HEPES, 0.2% glycerol and 0.02% Triton X-100, all at final concentrations) at 37° C. for 30 minutes. The reaction mixture was transferred to a 96-well MultiScreen-HA filter plate (Millipore Corp.) and then was left to stand overnight at room temperature in order to allow the unreacted substrate to be adsorbed on the filter. The plate was washed with PBS using a MultiScreen Vacuum Manifold (Millipore Corp.) and dried. To each well, 50 μl of liquid scintillation cocktail was added and stirred, and then counting was performed with a TopCount (Perkin-Elmer Corp.). The count of a sample containing a solvent instead of the test compound was taken as 0%, and the count at zero time was taken as 100%, to calculate the inhibitory activity of the compound.

In the case of `O=C(Nc1noc2ccccc12)N1CCN(c2nc(-c3ccccc3)ns2)CC1` [Example 1, N-1,2-Benzisoxazol-3-yl-4-(3-phenyl-1,2,4-thiadiazol-5-yl)piperazine-1-carboxamide], the inhibition at 1 µM is reported as 100%.

For `CC(C)c1nsc(N2CCN(C(=O)Nc3noc4ccccc34)CC2)n1` [Example 9, N-1,2-Benzisoxazol-3-yl-4-(3-isopropyl-1,2,4-thiadiazol-5-yl)piperazine-1-carboxamide], the inhibition at 1 µM was 98%.

`O=C(Nc1noc2ccccc12)N1CCN(c2nc(-c3ccccn3)ns2)CC1` [Example 15, N-1,2-Benzisoxazol-3-yl-4-(3-pyridin-2-yl-1,2,4-thiadiazol-5-yl)piperazine-1-carboxamide] showed an inhibition at 1 µM of 102%.

Work on `O=C(Nc1noc2ccccc12)N1CCN(c2nc(N3CCCCC3)ns2)CC1` [Example 17, N-1,2-Benzisoxazol-3-yl-4-(3-piperidin-1-yl-1,2,4-thiadiazol-5-yl)piperazine-1-carboxamide] yielded an inhibition at 1 µM of 95%.

With `O=C(Nc1noc2ccccc12)N1CCN(c2nc(-c3ccccc3)no2)CC1` [Example 22, N-1,2-Benzisoxazol-3-yl-4-(3-phenyl-1,2,4-oxadiazol-5-yl)piperazine-1-carboxamide] the inhibition at 1 µM was 94%.

In the case of `O=C(Nc1noc2ccccc12)N1CCN(c2nc(-c3ccccc3)co2)CC1` [Example 23, N-1,2-Benzisoxazol-3-yl-4-(4-phenyl-1,3-oxazol-2-yl)piperazine-1-carboxamide], the inhibition at 1 µM is reported as 100%.

Work on `O=C(Nc1ccc2[nH]nnc2c1)N1CCN(c2nc(-c3ccccc3)ns2)CC1` [Example 71, N-1H-1,2,3-Benzotriazol-5-yl-4-(3-phenyl-1,2,4-thiadiazol-5-yl)piperazine-1-carboxamide] yielded an inhibition at 1 µM of 108%.

With `O=C(Nc1cccnc1)N1CCN(c2nc(-c3ccccc3)ns2)CC1` [Example 85, 4-(3-Phenyl-1,2,4-thiadiazol-5-yl)-N-pyridin-3-ylpiperazine-1-carboxamide hydrochloride] the inhibition at 1 µM was 100%.

`O=C(Nc1cccnc1)N1CCN(c2nc(-c3ccccc3)cs2)CC1` [Example 94, 4-(4-Phenyl-1,3-thiazol-2-yl)-N-pyridin-3-ylpiperazine-1-carboxamide] was tested, and the inhibition at 1 µM was 100%.

Work on `O=C(Nc1noc2ccccc12)N1CCN(C(=O)OCc2ccccc2)CC1` [Example 95, Benzyl 4-[(1,2-benzisoxazol-3-ylamino)carbonyl]piperazine-1-carboxylate] yielded an inhibition at 1 µM of 100%.

Work on `O=C(Nc1cccnn1)N1CCN(c2nc(-c3ccccc3)ns2)CC1` [Example 147, 4-(3-Phenyl-1,2,4-thiadiazol-5-yl)-N-pyridazin-3-ylpiperazine-1-carboxamide] yielded an inhibition at 1 µM of 101%.

In the case of `O=C(Nc1cnccn1)N1CCN(c2nc(-c3ccccc3)cs2)CC1` [Example 166, 4-(4-Phenyl-1,3-thiazol-2-yl)-N-pyrazin-2-ylpiperazine-1-carboxamide], the inhibition at 1 µM is reported as 106%.

In the case of `Cc1noc(NC(=O)N2CCC(c3nc(-c4ccccc4)cs3)CC2)c1C` [Example 190, N-(3,4-Dimethylisoxazol-5-yl)-4-(4-phenyl-1,3-thiazol-2-yl)piperidine-1-carboxamide], the inhibition at 1 µM is reported as 103%.

For `CCc1sc(N2CCN(C(=O)Nc3ccc(NC(C)=O)nc3)CC2)nc1-c1ccccc1` [Example 226, N-[6-(Acetylamino)pyridin-3-yl]-4-(5-ethyl-4-phenyl-1,3-thiazol-2-yl)piperazine-1-carboxamide], the inhibition at 1 µM was 104%.

Molecule `O=C(Nc1cccnn1)N1CCN(c2nc(-c3cccc(F)c3)cs2)CC1` [Example 228, 4-[4-(3-Fluorophenyl)-1,3-thiazol-2-yl]-N-pyridazin-3-ylpiperazine-1-carboxamide] has an inhibition at 1 µM of 106%.

`O=C(Nc1cnccn1)N1CCN(c2nc(-c3cccc(F)c3)cs2)CC1` [Example 229, 4-[4-(3-Fluorophenyl)-1,3-thiazol-2-yl]-N-pyrazin-2-ylpiperazine-1-carboxamide] gave an inhibition at 1 µM of 105%.

With `Cc1noc(NC(=O)N2CCC(c3nc(-c4ccc(F)cc4)cs3)CC2)c1C` [Example 236, N-(3,4-Dimethylisoxazol-5-yl)-4-[4-(4-fluorophenyl)-1,3-thiazol-2-yl]piperidine-1-carboxamide] the inhibition at 1 µM was 106%.

With `Cc1noc(NC(=O)N2CCN(c3nc(-c4ccc(F)cc4F)cs3)CC2)c1C` [Example 260, 4-[4-(2,4-Difluorophenyl)-1,3-thiazol-2-yl]-N-(3,4-dimethylisoxazol-5-yl)piperazine-1-carboxamide] the inhibition at 1 µM was 102%.

Work on `O=C(Nc1cccnc1)N1CCN(c2nc(-c3cccc(F)c3F)cs2)CC1` [Example 262, 4-[4-(2,3-Difluorophenyl)-1,3-thiazol-2-yl]-N-pyridin-3-ylpiperazine-1-carboxamide] yielded an inhibition at 1 µM of 106%.

In the case of `O=C(Nc1cccnn1)N1CCN(c2nc(-c3cccc(F)c3F)cs2)CC1` [Example 272, 4-[4-(2,3-Difluorophenyl)-1,3-thiazol-2-yl]-N-pyridazin-3-ylpiperazine-1-carboxamide], the inhibition at 1 µM is reported as 102%.

Molecule `Cc1cccc(-c2csc(N3CCN(C(=O)Nc4cccnc4)CC3)n2)c1` [Example 275, 4-[4-(3-Methylphenyl)-1,3-thiazol-2-yl]-N-pyridin-3-ylpiperazine-1-carboxamide] has an inhibition at 1 µM of 94%.

For `Cc1noc(NC(=O)N2CCN(c3nc(-c4cccc(Cl)c4)cs3)CC2)c1C` [Example 276, 4-[4-(3-Chlorophenyl)-1,3-thiazol-2-yl]-N-(3,4-dimethylisoxazol-5-yl)piperazine-1-carboxamide], the inhibition at 1 µM was 104%.

In the case of `COc1cccc(-c2csc(N3CCN(C(=O)Nc4onc(C)c4C)CC3)n2)c1` [Example 277, N-(3,4-Dimethylisoxazol-5-yl)-4-[4-(3-methoxyphenyl)-1,3-thiazol-2-yl]piperazine-1-carboxamide], the inhibition at 1 µM is reported as 100%.

`Cc1noc(NC(=O)N2CCN(c3nc(-c4cccc(C(F)(F)F)c4)cs3)CC2)c1C` [Example 278, N-(3,4-Dimethylisoxazol-5-yl)-4-{4-[3-(trifluoromethyl)phenyl]-1,3-thiazol-2-yl}piperazine-1-carboxamide] was tested, and the inhibition at 1 µM was 104%.

Work on `Cc1cccc(-c2csc(N3CCN(C(=O)Nc4onc(C)c4C)CC3)n2)c1` [Example 280, N-(3,4-Dimethylisoxazol-5-yl)-4-[4-(3-methylphenyl)-1,3-thiazol-2-yl]piperazine-1-carboxamide] yielded an inhibition at 1 µM of 86%.

In the case of `O=C(Nc1cccnc1)N1CCN(c2nc(-c3cccc(Cl)c3Cl)cs2)CC1` [Example 283, 4-[4-(2,3-Dichlorophenyl)-1,3-thiazol-2-yl]-N-pyridin-3-ylpiperazine-1-carboxamide], the inhibition at 1 µM is reported as 102%.

`Cc1noc(NC(=O)N2CCN(c3nc(-c4cccc(Cl)c4Cl)cs3)CC2)c1C` [Example 284, 4-[4-(2,3-Dichlorophenyl)-1,3-thiazol-2-yl]-N-(3,4-dimethylisoxazol-5-yl)piperazine-1-carboxamide] showed an inhibition at 1 µM of 128%.
